Legend:
[1] = test system: CLERK ectodomain (CLERK-ECD); test: Isothermal titration calorimetry, CLERK ectodomain; format: binding, Arabidopsis thaliana; conditions: ITC, 25°C, 20 mM citrate (pH 5.0), 150 mM NaCl; 400 µM peptide into 30 µM CLERK-ECD
Protocol: (§1) Isolation of recombinant proteins and analytical gel filtrations were carried out as described previously ([Hazak et al., 2017]) with small adjustments. The coding sequences for BAM1-ECD (amino acids 20-637), BAM3-ECD (30-651), PXY-ECD (30-647), NIK1-ECD (32-248), NIK2-ECD (33-248), NIK3-ECD (26-238), CLERK-ECD (28-236) and At5G63710-ECD (51-224) were amplified from Arabidopsis thaliana cDNA using PfuX7 polymerase. All ECD-coding sequences were then cloned into a modified pFAST-BAC1 vector (Geneva Biotech) by GIBSON cloning, resulting in the addition of the azurocidin signal peptide sequence to the 5′-end, and of a 2×-STREP-9×HIS tag to the 3′-end of the ECD sequences. These plasmids, after being confirmed by sequencing, were transformed into Escherichia coli DH10MultiBac (Geneva Biotech) followed by the extraction of the resulting bacmids. Transfection of the bacmids into Spodoptera frugiperda Sf9 cells with Profectin (AB Vector) was carried out to produce and amplify the respective virus. Recombinant secreted expression of the proteins was carried out by addition of virus to Trichoplusia ni Tnao38 cells to reach a viral multiplicity of 1 and incubation of the cells for 3 days. […] Concentrations of the pure proteins were assessed by measuring their absorbance at 280 nm (NanoDrop Lite; Thermo Scientific) and subsequent correction with their respective extinction coefficient. […]

[2] = test system: BAM3 ectodomain with CLERK/At5g63710 ectodomains; test: Analytical size-exclusion chromatography, BAM3 + CLERK/At5g63710 ectodomains; format: binding, Arabidopsis thaliana; conditions: 50 µM peptide
Protocol: as §1

[3] = test system: BAM3 ectodomain with NIK1/2/3 ectodomains; test: Analytical size-exclusion chromatography, BAM3 + NIK1/2/3 ectodomains; format: binding, Arabidopsis thaliana; conditions: Fig. S3D; 50 µM peptide; pH 5.0
Protocol: as §1

Arabidopsis root growth = conditions: ref Hazak et al., 2017; cited from earlier work
Description: The incapacity of clerk loss-of-function second site mutation to suppress the brx phenotype (unlike second site bam3 or clv2-crn loss of function) is also of interest with respect to the role of CLE peptide signaling in the spatiotemporal progression of protophloem sieve element differentiation. Resistance of clerk mutants against root-active CLE peptides as well as CLERK expression in early protophloem reiterate the key role of the protophloem in CLE sensing in the root ([Hazak et al., 2017]). Yet not all CLE peptides have an equally strong effect on root growth, which correlates with their i ...

RKVPRGPDPIHN [CLE26]
Direct binding to CLERK ectodomain [1]: no direct binding

RRVRRGSDPIHN [CLE45]
Direct binding to CLERK ectodomain [1]: no direct binding
Elution of BAM3 ectodomain with CLERK/At5g63710 ectodomains ([2]; Fig. S3A, pH 5.0): elute as monomers
Peptide-induced binding of CLERK and BAM3 ectodomains ([2]; gel filtration, 20 mM citrate (pH 5.0), 150 mM NaCl): did not observe CLE45-induced binding
Elution of BAM3 ectodomain with NIK1/2/3 ectodomains [3]: elute as monomers
Relative strength as root-active CLE peptide (Arabidopsis root growth): strongest root-active CLE peptide

— PMC6001375, “CLERK is a novel receptor kinase required for sensing of root-active CLE peptides in Arabidopsis” (Development (Cambridge, England), 2018)
